For orientation: LD50 means the dose at which mortality reaches 50%.

We go through eight molecules from patent US8461165B2, “2-Substituted phenyl-5,7-dihydrocarbyl-3,7-dihydropyrrolo[2,3-d] pyrimidin-4-one derivatives, the preparation and the pharmaceutical use thereof” (Yangtze River Pharmaceutical (Group) Co., Ltd, priority 2003, dated 2013).

Each structure is given as a SMILES string. Where a name gives a salt, the structure may show the parent alone.

Data set [1] relates to mice. Put plainly: acute toxicity in mice. The class given is in vivo. The note with it: single dose. The protocol: Furthermore, none of any obvious sign of adverse acute toxicity is shown for the compounds of this invention tested in rat and dog, both intravenously (i.v.) and orally (p.o.) at up to 3 mg/Kg, has shown. For the situation of mice, no deaths occurred after doses of up to 100 mg/Kg i.v. The LD50 for a single dose of compound I-HCl in mice is 2000 mg/kg.

Data set [2] concerns the target phosphodiesterase 5 (PDE5) (Homo sapiens, UniProt O76074). Description: inhibition of phosphodiesterase 5 (SPA technique). The class given is biochemical. The protocol: The bioactivity inhibiting phosphodiesterase 5 (PDE5) of compounds of formula I was measured cross the reference of methods (Hidaka H, et al Biochim. Biochim. Biophys. Acta, 1976, 429, 485; Kim D-K, et al., Bioorg. Med. Chem. 2001, 9, 3013). The inhibiting activity of PDE5 was determined using SPA technique and the method of chemical fluorescence. The method was as follows: firstly, the reaction time curve and the enzyme concentration curve of PDE5 reaction system were determined by Microplate Scintillation & Luminescence Counter (TopCount Counter), by which the optimal reaction condition was determined. Under the optimized conditions, the inhibition experiments on PDE5 were carried out.

For data set [3], the system named is male rats. Description: effect of single administration on the coitus function of male rats. The note with it: 24 mg/kg oral; for the latent period of straddle / the latent period of the coitus / times of straddle / times of the coitus: single administration, 20 min observation, average ± standard deviation. The class given is in vivo, rat. The protocol: After purchasing, the male rat and the estrogenized female rat were kept in the same cage for 2 days, and the male rat would acquire the sexual experiences. Then, the female rat was taken out of the cage, and the experiments began after the male rat stayed alone in a cage for 5 days. Each tested compound was orally administered in a dosage of 24 mg/kg, the positive group was administered with Sildenafil citrate (Viagra) in a dosage of 24 mg/kg, and the control group was administered with saline at the equal volume (0.1 ml/10 g). Fifty minutes after administration, the tested male rats were placed within a observation container (both the diameter and the height of the container were 24 cm), and the male rats adapted the new environment for 5 minutes. After that, two estrogenized female rats were placed into the container. The sexual behavior of the male rats in 20 minutes was observed under the non-interfering condition using Panasonic WVCP410/G monitor, the latent period of straddle, times of straddle, as well as the latent period of the coitus and times of the coitus. All the experiments were carried out at 21-24° C., and completed before 11:00 AM. The comparative results among the compounds of the invention, the blank and the positive control drug Sildenafil citrate were listed in Table 2.

The test system of data set [4] is male rabbit. Put plainly: penis erection experiment in conscious male rabbits. The class given is in vivo. Particulars: for Length of rabbit penis: conscious rabbits, average of 3 rabbits. The protocol: (Bischoff E.; Schneider K, International Journal of Impotence Research, 2001, 13, 230 235)
The hydrochloride of 3,7-dihydropyrrolo[2,3-d]pyrimidin-4-one derivatives was dissolved into water, and injected to conscious-rabbits intravenously (i.v.) (0.1 mg-3 mg/kg). Erection was accessed by comparing the length of penis before and at 0, 30, 60, 90 and 120 minutes after intravenous administration of the above-mentioned agents.

Data set [5] concerns man. The note with it: cited from earlier work.
Where [6] appears, read: 0 min after i.v. administration (0.1 mg-3 mg/kg).
The mark [7] stands for this setting: 30 min after i.v. administration (0.1 mg-3 mg/kg).
Setting [8] is: 60 min after i.v. administration (0.1 mg-3 mg/kg).
[9] abbreviates: 90 min after i.v. administration (0.1 mg-3 mg/kg).
Where [10] appears, read: 120 min after i.v. administration (0.1 mg-3 mg/kg).

`CCCn1cc(C)c2c(=O)[nH]c(-c3cc(S(=O)(=O)N4CCN(CC)CC4)ccc3OCC)nc21.Cl` [Compound 1-HCl, 2-[2-ethoxyl-5-(4-ethylpiperazinyl-1-sulfonyl)phenyl]-5-methyl-7-n-propyl-3,7-dihydropyrrolo[2,3-d]pyrimidin-4-one monohydrochloride] gave a 50% lethal dose (LD50) in data set [1] of 2000 mg/kg. For the same molecule, the “inhibiting rate on PDE5” value in data set [2] (concentration 10^−8 mol/L) was determined as 65.62%. In addition, in data set [3] (both groups), the “effect on sexual function compared with Sildenafil citrate” value is recorded as “stronger than that of the Sildenafil citrate group”. Moreover, in data set [3], the “the latent period of straddle” value came to 2.6 ± 1.13 min, the “the latent period of the coitus” value is 7.1 ± 5.62 min, the times of straddle worked out at 7.6 ± 2.70 and the “times of the coitus” value was determined as 13.1 ± 8.77. For the same molecule, the “times of the coitus compared with positive control group” value in data set [3] (versus Sildenafil citrate, p<0.05) is “much more than that of the positive control group”. In data set [3] (versus saline), the “indexes of sexual function of the rats (in words)” value is given as “obviously enhanced”, the “latent period of coitus (in words)” value was “remarkably shortened”, the “latent period of straddle (in words)” value is “remarkably shortened” and the “times of the coitus (in words)” value is “obviously increased”. The “Length of rabbit penis” value in data set [4] (setting [6]) is given as 8.3 mm. For the same molecule, in data set [4] (setting [7]), the “Length of rabbit penis” value is 5.7 mm. In data set [4] (setting [8]), the “Length of rabbit penis” value was 5.3 mm. Moreover, the “Length of rabbit penis” value in data set [4] (setting [9]) is listed as 2.0 mm. In addition, the “Length of rabbit penis” value in data set [4] (setting [10]) is recorded as 1.3 mm. For the same molecule, the “potential in treatment of functional erectile dysfunction (in words)” value in data set [4] (rabbit penis erection, i.v.) was “quick onset and prolonged effectiveness”.

`CCCn1cc(C)c2c(=O)[nH]c(-c3cc(S(=O)(=O)N4CCN(CC)CC4)ccc3OCC)nc21.Cl.Cl` [Compound 1-2HCl, 2-[2-ethoxyl-5-(4-ethylpiperazinyl-1-sulfonyl)phenyl]-5-methyl-7-n-propyl-3,7-dihydropyrrolo[2,3-d]pyrimidin-4-one dihydrochloride]: the “Length of rabbit penis” value is 1.3 mm in data set [4] (setting [6]); 3.0 mm in data set [4] (setting [7]); 2.0 mm in data set [4] (setting [8]); 1.0 mm in data set [4] (setting [9]); 1.0 mm in data set [4] (setting [10]).

`CCCn1cc(C)c2c(=O)[nH]c(-c3cc(S(=O)(=O)N4CCN(C)CC4)ccc3OCC)nc21.Cl` [Compound 6-2HCl, 2-[2-ethoxyl-5-(4-methylpiperazinyl-1-sulfonyl)phenyl]-5-methyl-7-n-propyl-3,7-dihydropyrrolo[2,3-d]pyrimidin-4-one]: the “Length of rabbit penis” value is 0.0 mm in data set [4] (setting [6]); 5.3 mm in data set [4] (setting [7]); 2.7 mm in data set [4] (setting [8]); 1.7 mm in data set [4] (setting [9]); 0.0 mm in data set [4] (setting [10]).

`CCCn1cc(C)c2c(=O)[nH]c(-c3cc(S(=O)(=O)N4CCN(C(=O)OCC)CC4)ccc3OCC)nc21.Cl.Cl` [Compound 8-2HCl, 2-[2-ethoxyl-5-(4-ethoxylcarbonylpiperazinyl-1-sulfonyl)phenyl]-5-methyl-7-n-propyl-3,7-dihydropyrrolo[2,3-d]pyrimidin-4-one]: the “Length of rabbit penis” value in data set [4] (setting [6]) is given as 2.7 mm; in data set [4] (setting [7]), 1.7 mm; in data set [4] (setting [8]), 1.3 mm; in data set [4] (setting [9]), 0.7 mm; in data set [4] (setting [10]) it was 0.0 mm.

For `CCCn1cc(C)c2c(=O)[nH]c(-c3cc(S(=O)(=O)N4CCN(C)CC4)ccc3OCC)nc21.Cl` [Compound 6-HCl, 2-[2-ethoxyl-5-(4-methylpiperazinyl-1-sulfonyl)phenyl]-5-methyl-7-n-propyl-3,7-dihydropyrrolo[2,3-d]pyrimidin-4-one], in data set [3], the “the latent period of straddle” value came out at 6.4 ± 3.07 min, the “the latent period of the coitus” value amounted to 8.8 ± 5.85 min, the times of straddle is listed as 8.0 ± 3.93 and the “times of the coitus” value stood at 9.0 ± 8.50. Also, the “latent period of coitus compared with positive control group” value in data set [3] (versus Sildenafil citrate) was “remarkably shorter than that of the positive control group”. Also, the “indexes of sexual function of the rats (in words)” value in data set [3] (versus saline) is reported as “obviously enhanced”.

As for `CCCc1nn(C)c2c(=O)[nH]c(-c3cc(S(=O)(=O)N4CCN(C)CC4)ccc3OCC)nc12` [sildenafil, reference compound], the inhibition at 0.01 µM in data set [2] (read-out: inhibiting rate on PDE5) came out at 31.7%. The “effective rates in treating male sexual organs erectile dysfunction” value in data set [5] was 80%.

For `CCCn1cc(C)c2c(=O)[nH]c(-c3cc(S(=O)(=O)N4CCN(Cc5ccccc5)CC4)ccc3OCC)nc21.Cl.Cl` [Compound 19-2HCl, 2-[2-ethoxyl-5-(4-benzylpiperazinyl-1-sulfonyl)phenyl]-5-methyl-7-n-propyl-3,7-dihydropyrrolo[2,3-d]pyrimidin-4-one], the “Length of rabbit penis” value in data set [4] (setting [6]) stood at 1.7 mm; in data set [4] (setting [7]), 4.0 mm; in data set [4] (setting [8]), 4.3 mm; in data set [4] (setting [9]) it was 4.0 mm; in data set [4] (setting [10]) it was 0.0 mm.

Turning to `CCCc1nn(C)c2c(=O)[nH]c(-c3cc(S(=O)(=O)N4CCN(C)CC4)ccc3OCC)nc12` [Sildenafil citrate, reference compound], in data set [3], the “the latent period of straddle” value amounted to 5.0 ± 4.74 min, the “the latent period of the coitus” value is recorded as 8.2 ± 4.02 min, the times of straddle stood at 12.7 ± 7.18 and the “times of the coitus” value is on record as 8.2 ± 5.25.
